This is an account of results in ChEMBL document CHEMBL4229375, “Towards new antibiotics targeting bacterial transglycosylase: Synthesis of a Lipid II analog as stable transition-state mimic inhibitor” (Bioorg Med Chem Lett, 2018).

The target of this assay is Bacterial penicillin-binding protein (Bacteria) (UniProt P24228+P0AD68+P02918+P02919+P0AEB2+P0AD65+P08506). Description: Inhibition of Acinetobacter baumannii PBP transglycosylase activity at 50 uM using NBD-labeled lipid 2 as substrate after 30 mins by N-acetylmuramidase enzyme coupled HPLC analysis relative to control. Type of assay: protein assay.

By inhibition is commonly meant how much of the control response was suppressed. In turn, `CC(=O)N[C@H]1[C@H](O[C@H]2[C@H](O)[C@H](O)[C@@H](CP(=O)(O)OP(=O)(O)OC/C=C(\C)CC/C=C(/C)CC/C=C(\C)CCC=C(C)C)N[C@@H]2CO)O[C@H](CO)[C@@H](O)[C@@H]1O` yielded an inhibition of 70%.
